Like-named read-outs stand apart in the source and are kept apart here.
Legend:
[1] = system: phosphoCTD (S2) in HCT116 cells; test: Phospho-carboxyl terminal domain (Ser2) p-CTD (S2) cell based Acumen assay; details: read-out: relative IC50 for phosphoCTD (S2)
Experimental: HCT116 cells (ATCC CCL-247) are cultured in McCoy’s 5 Å Medium Modified media supplemented with 10% FBS, 1% NaPyr, and 1% Pen/Strep and plated (prior to becoming 70% confluent) in 96-well flat-bottom plates at a density of 5,000 cells per well in 100 µL volume. The cells are then incubated overnight in a cell culture incubator (5% CO2, 95% Relative Humidity (RH) and 37° C.) and allowed to attach to the plate. The following morning the cells are dosed with compounds. Compound inhibitors are first solubilized at 60 µM in culture medium containing 0.6% DMSO. Subsequently compound serial dilutions (1:3) are prepared over a 60 µM to 0.003 µM range. Cells are dosed with the addition of 50 µL from serial dilution plate to assay plate containing cells attached with 100 µL of media producing a final DMSO concentration of 0.2% with a final compound concentration dose range between 20 and 0.001 µM. For max point media containing 0.2% of DMSO is used and for min point, a reference compound diluted at 0.83 µM final concentration in the growth media containing 0.2% DMSO is used. After dosing with compounds, the cell plates are incubated at 37° C. and 5% CO2 for 4 hours. The growth media is removed carefully and the cells are fixed by adding 100 µL of 4% para-formaldehyde for 30 minutes at RT. Cells are washed once with PBS and incubated with 100 µL of cold MeOH for 15 minutes at RT for cell permeation. Cells are washed twice with PBS (100 µL/each) and blocked with 100 µL/well of 1% BSA/PBS for 30 minutes at RT. 50 µL of 1:1000 primary antibody (Anti-phospho CTD Ser2 Abcam, cat# ab5095-100) dilution in 1% BSA/PBS are added per well, the plates are sealed and incubated overnight at 4° C.
The following day cells are washed three times with PBS (100 µL/well) and incubated with 50 µL/well of secondary antibody (1:2000 dilution, Goat anti-rabbit IgM ALEXA FLUOR™ 488) in PBS for 1 hour at RT. After washing 3X with PBS (100 µL/well), 100 µL of 50 µg/mL RNAase and 1:1000 propidium iodide dilution in PBS are added per well. Plates are sealed and incubated 1 hour at RT on the bench (preserved from light). Plates are analyzed on Acumen on FL2 (mean intensity) and FL3 (total intensity). Fluorescence plates are scanned with ACUMEN EXPLORER™ [Laser-scanning fluorescence microplate cytometer manufactured by TTP LABTECH LTD] to measure anti-phospho-carboxyl terminal domain at Serine 2 (pCTD). Image analysis is based on cellular fluorescent signals for identifying positive cells. pCTD (S2) positive cells are identified by mean intensity at 500-530 above the threshold. Total intensity at 575-640 from propidium iodide/DNA is used to identify individual cells. Assay output is % pCTD positive cells.
The IC50 is determined by curve fitting to a four parameter logistic for each output using GENE DATA™.

cMyc in HCT116 cells = test: cMyc cell based Acumen assay; details: read-out: Relative IC50 for cMyc
Experimental: HCT116 cells (ATCC CCL-247) are cultured in McCoy’s 5 Å Medium Modified media supplemented with 10% FBS, 1% NaPyr, and 1% Pen/Strep and plated (prior to becoming 70% confluent) in 96-well flat-bottom plates at a density of 5,000 cells per well in 100 µL volume. The cells are then incubated overnight in a cell culture incubator (5% CO2, 95% Relative Humidity (RH), and 37° C.) and allowed to attach to the plate. The following morning the cells are dosed with compounds. Compound inhibitors are solubilized at 60 µM in culture medium containing 0.6% DMSO. Subsequently, compound serial dilutions (1:3) are prepared over a 60 µM to 0.003 µM range. Cells are dosed with the addition of 50 µL from serial dilution plate to assay plate containing cell attached with 100 µL of media producing a final DMSO concentration of 0.2% with a final compound concentration dose range between 20 µM and 0.001 µM. For max point media containing 0.2% of DMSO is used and for min point, a reference compound diluted at 0.83 µM final concentration in the growth media containing 0.2% DMSO is used. After dosing with compounds, the cell plates are incubated at 37° C. and 5% CO2 for 4 hours. Growth media is removed carefully and the cells are fixed by adding 100 µL of 4% para-formaldehyde for 30 minutes at RT. Cell are washed once with PBS and incubated with 100 µL of cold MeOH for 15 minutes at RT for cell permeation. Again cell are washed twice with PBS (100 µL/each) and blocked with 100 µL/well of 1% BSA/PBS for 30 minutes at RT. 50 µL of 1:1000 primary antibody (Anti-c-Myc antibody [Y69] Abcam cat# ab32072) dilution in 1% BSA/PBS are added per well, the plates sealed and incubated overnight at 4° C. The following day cells are washed three times with PBS (100 µL/well) and incubated with 50 µL/well of secondary antibody (1:2000 dilution, Goat anti-rabbit IgM ALEXA FLUOR™ 488) in PBS for 1 hour at RT. After wash 3× with PBS (100 µL/well), 100 µL of 50 µg/mL RNAase and 1:1000 propidium iodide (Invitrogene) dilution in PBS are added per well. Plates are sealed and incubated for 1 hour at RT on the bench (preserved from light). Plates are analyzed on Acumen on FL2 (mean intensity), and FL3 (total intensity). Fluorescence Plates are scanned with ACUMEN EXPLORER™ [Laser-scanning fluorescence microplate cytometer manufactured by TTP LABTECH LTD] to measure anti-phospho-carboxyl terminal domain at Serine 5 (pCTD). Image analysis is based on cellular fluorescent signals for identifying positive cells. pCTD (S5) positive cells are identified by mean intensity at 500-530 above the threshold. Total intensity at 575-640 from propidium iodide/DNA is used to identify individual cells. Assay output is % pCTD positive cells. The IC50 is determined by curve fitting to a four parameter logistic for each output using GENE DATA™.

SMILES	IC50 ([1]; 4 hours) [µM]	IC50 (cMyc in HCT116 cells; 4 hours) [µM]	IC50 ([1]; Homo sapiens, HCT-116, 4 h) [µM]	IC50 (cMyc in HCT116 cells; Homo sapiens, HCT-116, 4 h) [µM]
C=CC(=O)N1CCO[C@H](CN2CCC(Nc3cc(C(C)F)cn4c(C(C)C)cnc34)CC2)C1 (single isomer, unassigned) [Example 2]	6.36	0.0947	–	–
C=CC(=O)N1CCO[C@H](CN2CCC(Nc3cc(C(C)O)cn4c(C(C)C)cnc34)CC2)C1 (single isomer, unassigned) [Example 5]	7.79	0.14	–	–
C=CC(=O)N1CCO[C@H](CN2CCC(Nc3cc(C(F)(F)F)cn4c(C(C)C)cnc34)CC2)C1 [Example 8, 1-[(2R)-2-[[4-[[3-isopropyl-6-(trifluoromethyl)imidazo[1,2-a]pyridin-8-yl]amino]-1-piperidyl]methyl]morpholin-4-yl]prop-2-en-1-one]	–	–	2.59	0.0245
C=CC(=O)N1CCO[C@H](CN2CCC(Nc3cc(C(C)O)cn4c(C(C)C)cnc34)CC2)C1 (single isomer, unassigned) [Example 4]	3.71	0.038	–	–
C=CC(=O)N1CCO[C@H](CN2CCC(Nc3cc(C(C)F)cn4c(C(C)C)cnc34)CC2)C1 (single isomer, unassigned) [Example 1]	–	–	5.73	0.082
[2H]C([2H])=C([2H])C(=O)N1CCO[C@H](CN2CCC(Nc3cc(C(F)(F)F)cn4c(C(C)C)cnc34)CC2)C1 [Example 6, 2,3,3-trideuterio-1-[(2R)-2-[[4-[[3-isopropyl-6-(trifluoromethyl)imidazo[1,2-a]pyridin-8-yl]amino]-1-piperidyl]methyl]morpholin-4-yl]prop-2-en-1-one]	–	–	3.79	0.00791
[2H]CC([2H])(C)c1cnc2c(NC3CCN(C[C@@H]4CN(C(=O)C=C)CCO4)CC3)cc(C(F)(F)F)cn12 (mixture of isomers) [Example 7, 1-[(2R)-2-[[4-[[3-[rac-1,2-dideuterio-1-methyl-ethyl]-6-(trifluoromethyl)imidazo[1,2-a]pyridin-8-yl]amino]-1-piperidyl]methyl]morpholin-4-yl]prop-2-en-1-one]	–	–	2.92	0.0138
